This data set deals with Caco-2 cells. Kind of data set: Caco-2 permeability. It is filed as in vitro ADME. Particulars: Caco-2 bidirectional assay. How it is done: (iii) Caco-2 Permeability
Caco-2 cells were seeded onto Millipore Multiscreen plates at 1×10^5 cells/cm^2, and were cultured for 20 days. Assessment of compound permeability was subsequently conducted. The compounds were applied to the apical surface (A) of cell monolayers and compound permeation into the basolateral (B) compartment was measured. This was performed in the reverse direction (B-A) to investigate active transport. A permeability coefficient value, Papp, for each compound, a measure of the rate of permeation of the compound across the membrane, was calculated. Compounds were grouped into low Papp</=1.0×10^6 cm/s) or high Papp>/=1.0×10^6cm/s) absorption potential based on comparison with control compounds with established human absorption.
For assessment of a compound's ability to undergo active efflux, the ratio of basolateral (B) to apical (A) transport compared with A to B was determined. Values of B−A/A−B>/=1.0 indicated the occurrence of active cellular efflux. All of the compounds tested through the Caco-2 permeability screen had Papp values >/=[…].
(In general: Caco-2 monolayers are a common model of the intestinal barrier.)

For `CN1CCN(Cc2cc3nc(-c4cccc(O)c4)nc(N4CCOCC4)c3s2)CC1` [PI540], the “B−A/A−B asymmetry index” value is given as “less than 1.0”.

These data come from patent publication US7776856B2, “Pharmaceutical compounds” (F. Hoffman-La Roche AG, priority 2004, dated 2010).
